Measured values as given in ChEMBL document CHEMBL5291721, “A preclinical secondary pharmacology resource illuminates target-adverse drug reaction associations of marketed drugs” (Nat Commun, 2023).

How the values were obtained:
Thromboxane A2 receptor [1] = target: T1, Thromboxane A2 receptor (Homo sapiens, UniProt P21731); assay type: functional, cell-based
T1 sequence (P21731 whole entry): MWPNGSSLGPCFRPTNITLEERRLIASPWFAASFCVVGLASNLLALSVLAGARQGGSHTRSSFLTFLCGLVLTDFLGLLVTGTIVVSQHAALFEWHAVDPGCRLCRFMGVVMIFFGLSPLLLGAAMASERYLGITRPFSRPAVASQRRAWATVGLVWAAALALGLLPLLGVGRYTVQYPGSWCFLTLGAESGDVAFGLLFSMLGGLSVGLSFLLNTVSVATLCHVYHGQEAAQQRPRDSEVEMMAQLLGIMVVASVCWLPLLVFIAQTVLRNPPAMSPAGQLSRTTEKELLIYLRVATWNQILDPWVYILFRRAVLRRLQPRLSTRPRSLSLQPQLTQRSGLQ

Adenosine receptor A3 = target: T2, Adenosine receptor A3 (Homo sapiens, UniProt P0DMS8)
T2 sequence (P0DMS8 whole entry): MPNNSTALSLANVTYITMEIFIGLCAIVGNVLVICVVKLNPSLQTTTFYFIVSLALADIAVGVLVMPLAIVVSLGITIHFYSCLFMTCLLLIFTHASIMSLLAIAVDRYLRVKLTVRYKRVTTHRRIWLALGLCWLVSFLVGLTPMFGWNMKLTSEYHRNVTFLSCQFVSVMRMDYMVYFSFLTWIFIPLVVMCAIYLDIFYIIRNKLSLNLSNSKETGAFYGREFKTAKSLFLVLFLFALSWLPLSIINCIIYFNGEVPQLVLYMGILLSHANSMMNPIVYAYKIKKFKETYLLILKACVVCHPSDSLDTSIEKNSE

[2] = target: T3, Alpha-2A adrenergic receptor (Homo sapiens, UniProt P08913)
T3 sequence (P08913 whole entry): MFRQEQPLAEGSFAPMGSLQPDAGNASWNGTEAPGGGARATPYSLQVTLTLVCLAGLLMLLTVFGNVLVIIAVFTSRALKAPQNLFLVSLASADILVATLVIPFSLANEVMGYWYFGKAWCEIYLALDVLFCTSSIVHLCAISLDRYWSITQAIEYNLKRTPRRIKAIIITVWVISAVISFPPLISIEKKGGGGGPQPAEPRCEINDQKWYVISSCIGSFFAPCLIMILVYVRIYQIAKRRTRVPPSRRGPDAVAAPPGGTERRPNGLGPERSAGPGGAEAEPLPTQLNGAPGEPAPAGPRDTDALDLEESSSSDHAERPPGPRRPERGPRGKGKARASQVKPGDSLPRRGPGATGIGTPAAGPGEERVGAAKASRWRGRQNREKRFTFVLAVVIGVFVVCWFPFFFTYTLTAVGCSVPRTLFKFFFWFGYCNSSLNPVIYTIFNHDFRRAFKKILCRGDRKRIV

Acetylcholinesterase = Acetylcholinesterase (Homo sapiens, UniProt P22303); assay type: functional
Chain of Acetylcholinesterase (P22303 whole entry): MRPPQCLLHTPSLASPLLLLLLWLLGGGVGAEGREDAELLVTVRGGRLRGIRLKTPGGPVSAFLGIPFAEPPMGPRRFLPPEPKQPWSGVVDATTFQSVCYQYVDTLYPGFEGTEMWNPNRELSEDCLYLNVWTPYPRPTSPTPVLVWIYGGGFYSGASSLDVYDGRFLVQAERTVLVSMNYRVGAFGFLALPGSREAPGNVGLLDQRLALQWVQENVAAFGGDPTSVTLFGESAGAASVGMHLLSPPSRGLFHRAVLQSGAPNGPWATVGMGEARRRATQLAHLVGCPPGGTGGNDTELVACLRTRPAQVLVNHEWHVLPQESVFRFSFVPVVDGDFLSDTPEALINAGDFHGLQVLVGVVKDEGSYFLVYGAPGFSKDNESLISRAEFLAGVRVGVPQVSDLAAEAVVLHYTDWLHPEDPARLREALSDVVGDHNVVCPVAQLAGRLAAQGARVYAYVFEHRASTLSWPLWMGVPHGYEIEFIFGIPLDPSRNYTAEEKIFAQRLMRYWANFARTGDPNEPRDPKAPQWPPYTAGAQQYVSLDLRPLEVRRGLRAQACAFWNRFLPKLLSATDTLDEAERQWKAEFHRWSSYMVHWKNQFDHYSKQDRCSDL

[3] = target: Sodium-dependent noradrenaline transporter (Homo sapiens, UniProt P23975)
Chain of Sodium-dependent noradrenaline transporter (P23975 whole entry): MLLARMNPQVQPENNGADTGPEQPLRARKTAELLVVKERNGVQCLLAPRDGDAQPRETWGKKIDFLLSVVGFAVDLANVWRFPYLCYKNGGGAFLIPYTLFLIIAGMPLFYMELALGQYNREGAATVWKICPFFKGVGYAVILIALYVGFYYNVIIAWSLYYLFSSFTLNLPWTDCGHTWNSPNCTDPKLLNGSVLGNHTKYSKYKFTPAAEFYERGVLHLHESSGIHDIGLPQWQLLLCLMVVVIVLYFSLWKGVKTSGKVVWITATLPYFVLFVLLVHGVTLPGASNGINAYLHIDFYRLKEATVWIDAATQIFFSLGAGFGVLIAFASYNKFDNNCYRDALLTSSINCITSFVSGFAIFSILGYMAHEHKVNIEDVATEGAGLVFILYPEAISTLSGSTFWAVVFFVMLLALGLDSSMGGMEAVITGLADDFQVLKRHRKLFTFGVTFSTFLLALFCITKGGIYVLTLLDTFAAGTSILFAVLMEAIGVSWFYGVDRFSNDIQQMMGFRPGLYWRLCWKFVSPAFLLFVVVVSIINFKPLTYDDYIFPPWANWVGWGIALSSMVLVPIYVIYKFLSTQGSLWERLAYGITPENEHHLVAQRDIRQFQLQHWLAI

[4] = target: T4, Prostaglandin G/H synthase 1 (Homo sapiens, UniProt P23219); assay type: functional
T4 sequence (P23219 whole entry): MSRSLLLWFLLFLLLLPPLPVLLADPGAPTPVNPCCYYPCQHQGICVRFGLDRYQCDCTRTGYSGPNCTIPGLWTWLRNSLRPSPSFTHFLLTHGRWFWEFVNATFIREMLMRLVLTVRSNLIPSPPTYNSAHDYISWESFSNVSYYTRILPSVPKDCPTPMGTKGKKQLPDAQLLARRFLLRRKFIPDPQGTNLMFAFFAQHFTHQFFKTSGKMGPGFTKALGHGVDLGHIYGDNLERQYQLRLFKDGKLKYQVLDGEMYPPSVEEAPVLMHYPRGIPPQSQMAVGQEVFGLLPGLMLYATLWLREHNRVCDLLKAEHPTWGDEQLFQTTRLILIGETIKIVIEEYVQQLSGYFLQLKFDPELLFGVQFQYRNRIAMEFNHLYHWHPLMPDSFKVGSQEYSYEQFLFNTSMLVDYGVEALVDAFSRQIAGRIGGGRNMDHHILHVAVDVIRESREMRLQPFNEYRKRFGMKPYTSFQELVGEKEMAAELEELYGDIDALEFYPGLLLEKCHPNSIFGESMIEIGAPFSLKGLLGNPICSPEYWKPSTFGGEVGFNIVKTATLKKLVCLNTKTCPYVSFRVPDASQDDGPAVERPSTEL

D(3) dopamine receptor = D(3) dopamine receptor (Homo sapiens, UniProt P35462)
Chain of D(3) dopamine receptor (P35462 whole entry): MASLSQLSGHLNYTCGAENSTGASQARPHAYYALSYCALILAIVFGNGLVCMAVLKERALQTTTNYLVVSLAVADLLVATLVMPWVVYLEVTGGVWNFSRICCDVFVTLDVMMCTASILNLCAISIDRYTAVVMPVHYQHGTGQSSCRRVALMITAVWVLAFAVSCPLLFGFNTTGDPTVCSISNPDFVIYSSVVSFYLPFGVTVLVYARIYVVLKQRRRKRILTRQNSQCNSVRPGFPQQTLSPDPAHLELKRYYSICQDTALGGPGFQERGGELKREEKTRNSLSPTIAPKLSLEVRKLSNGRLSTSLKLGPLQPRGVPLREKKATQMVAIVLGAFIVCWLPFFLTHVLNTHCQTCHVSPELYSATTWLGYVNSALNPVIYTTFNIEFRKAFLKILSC

D(1A) dopamine receptor = D(1A) dopamine receptor (Homo sapiens, UniProt P21728)
Chain of D(1A) dopamine receptor (P21728 whole entry): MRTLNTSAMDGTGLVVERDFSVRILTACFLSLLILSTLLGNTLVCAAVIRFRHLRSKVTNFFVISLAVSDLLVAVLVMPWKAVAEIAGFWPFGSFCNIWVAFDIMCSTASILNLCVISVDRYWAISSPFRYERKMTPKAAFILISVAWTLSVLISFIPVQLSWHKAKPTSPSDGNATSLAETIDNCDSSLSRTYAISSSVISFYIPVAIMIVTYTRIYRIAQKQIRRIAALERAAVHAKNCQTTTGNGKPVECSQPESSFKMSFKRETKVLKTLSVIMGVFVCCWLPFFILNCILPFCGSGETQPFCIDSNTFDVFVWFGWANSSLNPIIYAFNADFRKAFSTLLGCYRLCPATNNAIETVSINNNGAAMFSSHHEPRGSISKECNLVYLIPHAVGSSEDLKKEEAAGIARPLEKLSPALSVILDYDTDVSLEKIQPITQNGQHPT

Estrogen receptor = target: T5, Estrogen receptor (Homo sapiens, UniProt P03372)
T5 sequence (P03372 whole entry): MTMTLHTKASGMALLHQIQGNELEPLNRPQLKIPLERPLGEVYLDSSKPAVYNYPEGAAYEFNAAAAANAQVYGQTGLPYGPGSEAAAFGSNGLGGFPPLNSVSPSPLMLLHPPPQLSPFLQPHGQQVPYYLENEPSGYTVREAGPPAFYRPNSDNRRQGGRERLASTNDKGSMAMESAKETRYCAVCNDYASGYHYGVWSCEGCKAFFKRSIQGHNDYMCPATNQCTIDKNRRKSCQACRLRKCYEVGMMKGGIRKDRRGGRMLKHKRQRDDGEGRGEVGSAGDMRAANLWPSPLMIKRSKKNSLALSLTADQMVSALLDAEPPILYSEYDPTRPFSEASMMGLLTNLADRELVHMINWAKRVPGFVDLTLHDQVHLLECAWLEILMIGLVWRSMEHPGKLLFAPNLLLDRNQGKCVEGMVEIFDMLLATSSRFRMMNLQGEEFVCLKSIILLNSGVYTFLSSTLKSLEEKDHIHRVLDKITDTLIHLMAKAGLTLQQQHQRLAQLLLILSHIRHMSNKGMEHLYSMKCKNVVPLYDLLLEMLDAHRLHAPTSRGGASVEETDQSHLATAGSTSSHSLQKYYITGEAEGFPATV

Histamine H3 receptor = Histamine H3 receptor (Homo sapiens, UniProt Q9Y5N1)
Chain of Histamine H3 receptor (Q9Y5N1 whole entry): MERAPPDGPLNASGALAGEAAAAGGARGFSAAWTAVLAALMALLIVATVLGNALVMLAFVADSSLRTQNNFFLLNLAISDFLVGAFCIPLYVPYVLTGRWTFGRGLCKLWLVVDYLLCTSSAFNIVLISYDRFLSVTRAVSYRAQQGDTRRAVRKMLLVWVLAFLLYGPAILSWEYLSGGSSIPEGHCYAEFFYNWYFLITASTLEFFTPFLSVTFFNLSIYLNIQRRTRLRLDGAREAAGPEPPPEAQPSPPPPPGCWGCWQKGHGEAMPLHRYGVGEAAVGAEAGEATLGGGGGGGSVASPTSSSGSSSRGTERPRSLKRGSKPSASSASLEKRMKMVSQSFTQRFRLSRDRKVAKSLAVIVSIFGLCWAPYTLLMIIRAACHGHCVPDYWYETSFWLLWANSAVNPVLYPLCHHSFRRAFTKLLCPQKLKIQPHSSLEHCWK

Thromboxane A2 receptor [5] = target: T1, Thromboxane A2 receptor; assay type: functional, cell-based; remark: listed apart in the source
[6] = target: cGMP-inhibited 3',5'-cyclic phosphodiesterase 3A (Homo sapiens, UniProt Q14432); assay type: functional
Chain of cGMP-inhibited 3',5'-cyclic phosphodiesterase 3A (Q14432 whole entry): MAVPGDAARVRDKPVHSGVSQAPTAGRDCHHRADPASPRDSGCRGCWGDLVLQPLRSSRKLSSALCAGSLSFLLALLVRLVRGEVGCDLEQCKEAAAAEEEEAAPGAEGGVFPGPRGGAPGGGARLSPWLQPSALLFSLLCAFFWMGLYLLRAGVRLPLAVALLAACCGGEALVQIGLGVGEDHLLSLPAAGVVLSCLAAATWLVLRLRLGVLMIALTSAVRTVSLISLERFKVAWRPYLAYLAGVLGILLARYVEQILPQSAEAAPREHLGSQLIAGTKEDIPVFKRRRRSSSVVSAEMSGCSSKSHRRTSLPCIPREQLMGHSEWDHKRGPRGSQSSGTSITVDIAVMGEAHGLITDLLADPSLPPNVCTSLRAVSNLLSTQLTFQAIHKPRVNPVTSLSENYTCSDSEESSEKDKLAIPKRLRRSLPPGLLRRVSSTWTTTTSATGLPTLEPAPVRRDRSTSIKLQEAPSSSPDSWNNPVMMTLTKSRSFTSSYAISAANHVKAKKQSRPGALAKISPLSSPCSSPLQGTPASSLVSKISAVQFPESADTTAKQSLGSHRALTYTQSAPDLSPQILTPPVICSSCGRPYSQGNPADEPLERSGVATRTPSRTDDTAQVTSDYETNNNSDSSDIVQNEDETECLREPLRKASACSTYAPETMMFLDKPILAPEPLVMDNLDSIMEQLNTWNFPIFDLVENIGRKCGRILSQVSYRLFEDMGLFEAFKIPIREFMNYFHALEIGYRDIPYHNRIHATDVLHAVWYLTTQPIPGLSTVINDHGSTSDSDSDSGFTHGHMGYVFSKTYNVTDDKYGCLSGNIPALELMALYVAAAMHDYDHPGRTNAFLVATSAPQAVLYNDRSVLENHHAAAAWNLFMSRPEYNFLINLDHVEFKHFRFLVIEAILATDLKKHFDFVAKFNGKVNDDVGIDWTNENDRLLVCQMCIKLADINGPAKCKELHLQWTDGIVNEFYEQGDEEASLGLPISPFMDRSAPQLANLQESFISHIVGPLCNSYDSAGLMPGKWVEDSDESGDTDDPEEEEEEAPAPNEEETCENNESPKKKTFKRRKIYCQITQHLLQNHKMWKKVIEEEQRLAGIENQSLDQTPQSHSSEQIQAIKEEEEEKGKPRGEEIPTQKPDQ

[7] = target: T6, Alpha-1A adrenergic receptor (Homo sapiens, UniProt P35348); assay type: functional, cell-based
T6 sequence (P35348 whole entry): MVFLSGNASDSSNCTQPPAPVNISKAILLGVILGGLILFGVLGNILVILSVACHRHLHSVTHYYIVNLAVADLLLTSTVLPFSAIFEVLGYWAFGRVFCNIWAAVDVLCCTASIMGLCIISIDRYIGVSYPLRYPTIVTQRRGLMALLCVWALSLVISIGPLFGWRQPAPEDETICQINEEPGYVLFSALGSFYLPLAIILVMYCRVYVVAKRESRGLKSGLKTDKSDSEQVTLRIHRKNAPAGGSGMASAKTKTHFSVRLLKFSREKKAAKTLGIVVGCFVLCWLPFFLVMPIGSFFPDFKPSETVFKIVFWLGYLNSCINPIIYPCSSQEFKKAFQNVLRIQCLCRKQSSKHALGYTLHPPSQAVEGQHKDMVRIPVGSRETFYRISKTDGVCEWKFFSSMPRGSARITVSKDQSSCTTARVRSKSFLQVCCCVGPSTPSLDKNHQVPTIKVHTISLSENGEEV

Mu-type opioid receptor = Mu-type opioid receptor (Homo sapiens, UniProt P35372)
Chain of Mu-type opioid receptor (P35372 whole entry): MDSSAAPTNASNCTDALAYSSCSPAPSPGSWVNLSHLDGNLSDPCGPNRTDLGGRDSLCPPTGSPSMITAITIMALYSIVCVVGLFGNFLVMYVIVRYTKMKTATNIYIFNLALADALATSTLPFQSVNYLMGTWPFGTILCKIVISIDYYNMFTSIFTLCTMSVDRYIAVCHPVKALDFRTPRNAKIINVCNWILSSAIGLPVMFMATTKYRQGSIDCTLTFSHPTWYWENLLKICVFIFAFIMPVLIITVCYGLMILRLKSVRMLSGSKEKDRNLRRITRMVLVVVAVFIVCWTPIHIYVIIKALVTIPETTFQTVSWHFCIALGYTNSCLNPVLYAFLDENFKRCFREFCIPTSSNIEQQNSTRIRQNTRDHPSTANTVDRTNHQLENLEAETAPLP

[8] = target: T6, Alpha-1A adrenergic receptor; assay type: functional, cell-based; remark: listed apart in the source
[9] = target: Sodium-dependent serotonin transporter (Homo sapiens, UniProt P31645)
[10] = target: T4, Prostaglandin G/H synthase 1; assay type: functional; remark: listed apart in the source

Measured: AC50
Note: assay procedure not described here.

COCCOc1cnc(NS(=O)(=O)c2ccccc2)nc1 [GLYMIDINE]
> 30 µM: Thromboxane A2 receptor [1] | Adenosine receptor A3 | [2] | Acetylcholinesterase | [3] | [4] | D(3) dopamine receptor | D(1A) dopamine receptor | Estrogen receptor | Histamine H3 receptor | Thromboxane A2 receptor [5] | [6] | [7] | Mu-type opioid receptor | [8] | [9] | [10]

CCC(=O)O[C@]1(C(=O)COC(C)=O)CC[C@H]2[C@@H]3CCC4=CC(=O)CC[C@]4(C)[C@H]3[C@@H](O)C[C@@]21C [HYDROCORTISONE ACEPONATE]
> 30 µM: Thromboxane A2 receptor [1] | Adenosine receptor A3 | [2] | Acetylcholinesterase | [3] | [4] | D(3) dopamine receptor | D(1A) dopamine receptor | Estrogen receptor | Histamine H3 receptor | Thromboxane A2 receptor [5] | [6] | [7] | Mu-type opioid receptor | [8] | [9] | [10]

O=[N+]([O-])O[C@H]1CO[C@H]2[C@@H]1OC[C@H]2O[N+](=O)[O-] [ISOSORBIDE DINITRATE]
> 30 µM: Thromboxane A2 receptor [1] | Adenosine receptor A3 | [2] | Acetylcholinesterase | [3] | [4] | D(3) dopamine receptor | D(1A) dopamine receptor | Estrogen receptor | Histamine H3 receptor | Thromboxane A2 receptor [5] | [6] | [7] | Mu-type opioid receptor | [8] | [9] | [10]

NC(=O)NCCC[C@H](N)C(=O)O [L-CITRULLINE]
> 30 µM: Thromboxane A2 receptor [1] | Adenosine receptor A3 | [2] | Acetylcholinesterase | [3] | [4] | D(3) dopamine receptor | D(1A) dopamine receptor | Estrogen receptor | Histamine H3 receptor | Thromboxane A2 receptor [5] | [6] | [7] | Mu-type opioid receptor | [8] | [9] | [10]

CC(=O)O[C@H]1C[C@H](O[C@H]2[C@@H](O)C[C@H](O[C@H]3[C@@H](O)C[C@H](O[C@H]4CC[C@@]5(C)[C@H](CC[C@@H]6[C@@H]5C[C@@H](O)[C@]5(C)[C@@H](C7=CC(=O)OC7)CC[C@]65O)C4)O[C@@H]3C)O[C@@H]2C)O[C@H](C)[C@H]1O[C@@H]1O[C@H](CO)[C@@H](O)[C@H](O)[C@H]1O [LANATOSIDE C]
> 30 µM: Thromboxane A2 receptor [1] | Adenosine receptor A3 | [2] | Acetylcholinesterase | [3] | [4] | D(3) dopamine receptor | D(1A) dopamine receptor | Estrogen receptor | Histamine H3 receptor | Thromboxane A2 receptor [5] | [6] | [7] | Mu-type opioid receptor | [8] | [9] | [10]
